Earlier results as cited in patent publication US10314873B2, “Method of treatment of diseases using hoodia extracts” (HADASIT MEDICAL RESEARCH SERVICES & DEVELOPMENT LTD., priority 2008, dated 2019).

What was measured:
Liver = conditions: P57 studies
hypothalamic neurons = conditions: icv injection of purified P57

Structure (SMILES): C/C=C(\C)C(=O)O[C@@H]1C[C@H]2[C@@H](CC=C3C[C@@H](O[C@H]4C[C@H](OC)[C@H](O[C@H]5C[C@H](OC)[C@H](O[C@@H]6O[C@H](C)[C@@H](O)[C@H](OC)[C@H]6O)[C@@H](C)O5)[C@@H](C)O4)CC[C@@]32C)[C@@]2(O)CC[C@H](C(C)=O)[C@@]12C [P57, (3β,12β,14β)-3-[(O-6-Deoxy-3-O-methyl-β-D-glucopyranosyl-(1→4)-O-2,6-dideoxy-3-O-methyl-β-D-ribohexopyranosyl-(1→4)-2,6-dideoxy-3-O-methyl-β-D-ribo-hexopyranosyl)oxy]-14-hydroxy-12-[[(2E)-2-methyl-1-oxo-2-butenyl]oxy]pregn-5-en-20-one]
- reduction of liver ATP content (Liver): about 60%
- increase of ATP content in hypothalamic neurons (hypothalamic neurons): 50-150%
